Structures can show the parent of a compound that is named as a salt.
The molecules below were run against T1, human norepinephrine transporter (Homo sapiens, UniProt P23975) (assay: Norepinephrine Transporter Binding Assay ([3H]desipramine displacement, MDCK cell membranes)). Details: MDCK cell membrane preparation expressing human NET; [3H]desipramine 2 nM; 2 h on ice; triplicate.
T1 construct: purchased Perkin-Elmer; host or cells: MDCK cells (membrane preparation)
Experimental: Unless otherwise stated, all reactions were conducted under an inert atmosphere of dry nitrogen. Indicated temperatures refer to those of the reaction bath, while ambient laboratory temperature is noted as 22° C. Anhydrous dimethylformamide (DMF), dimethylsulfoxide (DMSO), acetonitrile (MCCN), pyridine, triethylamine (TEA), and diisopropylethylamine (DIEA) were obtained from Aldrich in SureSeal® bottles. Absolute ethanol was obtained from Quantum Chemical Corp. Merck silica gel, grade 9385, 230-400 mesh, 60 Å was used for flash chromatography. Ethyl acetate (EtOAc), chloroform (CHCl3), methanol (MeOH), HPLC grade acetonitrile (MeCN), dichloromethane (DCM), ethyl ether, acetone, sodium hydroxide (NaOH), and hydrochloric acid (HCl) were obtained from Baker. 1-Trityl-1H-imidazole-2-amine was prepared according to a published procedure (U.S. Pat. No. 6,130,231, incorporated by reference in its entirety). 1-Bromo-2-fluoroethane was purchased from Alfa Aesar. 3-Methoxy-4-fluorobenzonitrile was purchased from TCI. MDCK cell membranes expressing human norepinephrine transporter, and [^3H]desipramine were purchased from Perkin-Elmer. [^18F]NaF was obtained from PETNET Pharmaceutical Services (Cummings Park, Woburn, MA) on a MP1 anion exchange resin (BioRad) cartridge. Other reagents were obtained from Lancaster Synthesis, Inc., Sigma-Aldrich Chemical Co, or Fluka Chemical Corp.
Inhibitors to be tested were dissolved in incubation buffer (50 mM Tris-HCl, 10% sucrose, pH 7.4) at appropriate dilutions. The inhibitor solutions were added to the wells of a microtiter plate (40 μL/well) in triplicate. Each well of test agent (and appropriate control wells) was treated with a mixture of MDCK cell membrane preparation (22.4 μg of membrane) expressing human norepinephrine transporter (Bmax=3.7 pmol norepinephrine transporter/mg protein), and [^3H]desipramine (2 nM, 64.8 Ci/mmol) in a total volume of 0.2 mL. The resulting mixtures were incubated for 2 h on ice. A 96 well GF/C filter plate was presoaked with coating buffer (0.5% polyvinylpyrrolidine and 0.1% Tween 20) for 2 h at room temperature. The presoaked filter plate was washed with incubation buffer (6×0.2 mL). The NET reactions were transferred to the coated filter plate and filtered. The filter plate was washed (6×0.2 mL) with ice cold wash buffer (50 mM Tris-HCl, 0.9% NaCl, pH 7.4). The plate was dried overnight, incubated briefly with 25 μL scintillant, and read on a Micro Beta plate reader.

T1 sequence (P23975 whole entry): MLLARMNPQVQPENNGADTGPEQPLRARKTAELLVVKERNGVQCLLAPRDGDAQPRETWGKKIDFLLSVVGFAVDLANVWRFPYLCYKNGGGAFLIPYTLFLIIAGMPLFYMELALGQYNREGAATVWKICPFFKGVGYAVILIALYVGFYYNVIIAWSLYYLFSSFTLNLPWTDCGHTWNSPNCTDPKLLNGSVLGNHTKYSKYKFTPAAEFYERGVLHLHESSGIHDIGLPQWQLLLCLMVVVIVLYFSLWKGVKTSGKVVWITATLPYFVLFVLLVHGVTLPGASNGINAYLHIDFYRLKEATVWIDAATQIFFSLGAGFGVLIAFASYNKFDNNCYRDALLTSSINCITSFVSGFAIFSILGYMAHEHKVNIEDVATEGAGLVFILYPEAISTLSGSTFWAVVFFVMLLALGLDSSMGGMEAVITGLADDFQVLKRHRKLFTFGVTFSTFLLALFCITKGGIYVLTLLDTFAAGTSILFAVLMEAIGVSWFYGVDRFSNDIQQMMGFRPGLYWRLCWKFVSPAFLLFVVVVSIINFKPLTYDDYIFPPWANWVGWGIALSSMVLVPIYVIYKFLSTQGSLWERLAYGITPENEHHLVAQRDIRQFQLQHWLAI

SMILES	NET Affinity [µM]
Fc1ccc(CNc2ncc[nH]2)cc1C(F)(F)F [Example 1, N-(4-Fluoro-3-(trifluoromethyl)benzyl)-1H-imidazol-2-amine]	17.94
Cl.N=C(N)NCC(O)c1ccc(OCCF)cc1 (centres unmarked) [Example 2, 1-(2-(4-(2-fluoroethoxy)phenyl)-2-hydroxyethyl)guanidinium Chloride]	<20
Cl.N=C(N)NCCc1ccc(OCCF)cc1 [Example 3, 1-(4-(2-Fluoroethoxy)phenethyl)guanidinium Chloride]	1.45
Cl.N=C1NCC(c2ccc(OCCF)cc2)N1 (centres unmarked) [Example 4, 4-(4-(2-Fluoroethoxy)phenyl)imidazolidin-2-iminium Chloride]	7.27
Cl.N=C(N)N/C=C/c1ccc(OCCF)cc1 [Example 5, (E)-1-(4-(2-Fluoroethoxy)styryl)guanidinium Chloride]	4.10
CC(N)C(O)c1cc(O)c(OCCF)c(O)c1.Cl (centres unmarked) [Example 6, 5-(2-Amino-1-hydroxypropyl)-2-(2-fluoroethoxy)benzene-1,3-diol Hydrochloride]	102.8
COc1cc(CNC(=N)N)ccc1F.Cl [Example 7, 3-Methoxy-4-fluorobenzylguanidinium Chloride]	20.71
Cl.N=C(N)NCc1ccc(OCCF)c(Br)c1 [Example 8, 3-Bromo-4-(2-fluoroethoxy)benzylguanidinium Chloride]	5.65
N=C(N)NCc1cccc(OCCF)c1 [Example 9, 3-(2-Fluoroethoxy)benzylguanidinium Trifluoroacetate]	4.36
N=C(N)NCCc1ccc(OCCF)c(Cl)c1 [Example 10, 3-Chloro-4-(2-fluoroethoxy)phenethylguanidinium Trifluoroacetate]	1.80
CNC(C)C(O)c1ccc(F)c(O)c1 (centres unmarked) [Example 11, 1-(4-Fluoro-3-hydroxyphenyl)-1-hydroxy-N-methylpropan-2-aminium Trifluoroacetate]	54.85
